From the supplement of paper PMC12463676, “Small-molecule dissolution of stress granules by redox modulation benefits ALS models” (Nature Chemical Biology, 2025)

What was measured:
[1] = compound: NC(=O)CCCCC1CCSS1 [lipoamide]; test: thermal stability z-score vs DMSO; higher = more thermally stabilized by treatment; details: HeLa, lipoamide concentration 100 µM
Method: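 Cellular thermal proteome profiling in HeLa cells. Cells were treated with 100 µM lipoamide for 1 h, with or without 1 mM arsenate for a further 1 h, then heated to ten temperatures (37-66.3 °C), and soluble protein was quantified by TMT mass spectrometry relative to 0.1% DMSO controls. The thermal stability score (sum of log2 fold changes minus the abundance score) was transformed to a z-score; mean of n = 3 experiments.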

[2] = compound: O=[As]([O-])(O)O.[K+] [potassium arsenate]; test: as above; details: HeLa; arsenate concentration 1 mM
Method: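 Cellular thermal proteome profiling in HeLa cells treated with 1 mM arsenate for 1 h (DMSO pretreatment), heated to ten temperatures (37-66.3 °C). Soluble protein was quantified by TMT mass spectrometry relative to DMSO controls; the thermal stability score was transformed to a z-score; mean of n = 3 experiments.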

[3] = arsenate co-treatment: 1 mM arsenate 1 h
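Note: each temperature applied for 3 min, abundance score taken as mean log2 fold change at the two lowest temperatures, z-score obtained by mean subtraction and division by SD.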

Chain of UniProt Q01658 (Q01658 whole entry): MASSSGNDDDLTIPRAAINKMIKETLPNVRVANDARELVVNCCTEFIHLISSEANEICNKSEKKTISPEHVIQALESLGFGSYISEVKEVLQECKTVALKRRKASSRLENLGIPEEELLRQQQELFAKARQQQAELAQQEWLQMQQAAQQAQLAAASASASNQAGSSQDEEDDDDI
Chain of UniProt Q96HP0 (Q96HP0 whole entry): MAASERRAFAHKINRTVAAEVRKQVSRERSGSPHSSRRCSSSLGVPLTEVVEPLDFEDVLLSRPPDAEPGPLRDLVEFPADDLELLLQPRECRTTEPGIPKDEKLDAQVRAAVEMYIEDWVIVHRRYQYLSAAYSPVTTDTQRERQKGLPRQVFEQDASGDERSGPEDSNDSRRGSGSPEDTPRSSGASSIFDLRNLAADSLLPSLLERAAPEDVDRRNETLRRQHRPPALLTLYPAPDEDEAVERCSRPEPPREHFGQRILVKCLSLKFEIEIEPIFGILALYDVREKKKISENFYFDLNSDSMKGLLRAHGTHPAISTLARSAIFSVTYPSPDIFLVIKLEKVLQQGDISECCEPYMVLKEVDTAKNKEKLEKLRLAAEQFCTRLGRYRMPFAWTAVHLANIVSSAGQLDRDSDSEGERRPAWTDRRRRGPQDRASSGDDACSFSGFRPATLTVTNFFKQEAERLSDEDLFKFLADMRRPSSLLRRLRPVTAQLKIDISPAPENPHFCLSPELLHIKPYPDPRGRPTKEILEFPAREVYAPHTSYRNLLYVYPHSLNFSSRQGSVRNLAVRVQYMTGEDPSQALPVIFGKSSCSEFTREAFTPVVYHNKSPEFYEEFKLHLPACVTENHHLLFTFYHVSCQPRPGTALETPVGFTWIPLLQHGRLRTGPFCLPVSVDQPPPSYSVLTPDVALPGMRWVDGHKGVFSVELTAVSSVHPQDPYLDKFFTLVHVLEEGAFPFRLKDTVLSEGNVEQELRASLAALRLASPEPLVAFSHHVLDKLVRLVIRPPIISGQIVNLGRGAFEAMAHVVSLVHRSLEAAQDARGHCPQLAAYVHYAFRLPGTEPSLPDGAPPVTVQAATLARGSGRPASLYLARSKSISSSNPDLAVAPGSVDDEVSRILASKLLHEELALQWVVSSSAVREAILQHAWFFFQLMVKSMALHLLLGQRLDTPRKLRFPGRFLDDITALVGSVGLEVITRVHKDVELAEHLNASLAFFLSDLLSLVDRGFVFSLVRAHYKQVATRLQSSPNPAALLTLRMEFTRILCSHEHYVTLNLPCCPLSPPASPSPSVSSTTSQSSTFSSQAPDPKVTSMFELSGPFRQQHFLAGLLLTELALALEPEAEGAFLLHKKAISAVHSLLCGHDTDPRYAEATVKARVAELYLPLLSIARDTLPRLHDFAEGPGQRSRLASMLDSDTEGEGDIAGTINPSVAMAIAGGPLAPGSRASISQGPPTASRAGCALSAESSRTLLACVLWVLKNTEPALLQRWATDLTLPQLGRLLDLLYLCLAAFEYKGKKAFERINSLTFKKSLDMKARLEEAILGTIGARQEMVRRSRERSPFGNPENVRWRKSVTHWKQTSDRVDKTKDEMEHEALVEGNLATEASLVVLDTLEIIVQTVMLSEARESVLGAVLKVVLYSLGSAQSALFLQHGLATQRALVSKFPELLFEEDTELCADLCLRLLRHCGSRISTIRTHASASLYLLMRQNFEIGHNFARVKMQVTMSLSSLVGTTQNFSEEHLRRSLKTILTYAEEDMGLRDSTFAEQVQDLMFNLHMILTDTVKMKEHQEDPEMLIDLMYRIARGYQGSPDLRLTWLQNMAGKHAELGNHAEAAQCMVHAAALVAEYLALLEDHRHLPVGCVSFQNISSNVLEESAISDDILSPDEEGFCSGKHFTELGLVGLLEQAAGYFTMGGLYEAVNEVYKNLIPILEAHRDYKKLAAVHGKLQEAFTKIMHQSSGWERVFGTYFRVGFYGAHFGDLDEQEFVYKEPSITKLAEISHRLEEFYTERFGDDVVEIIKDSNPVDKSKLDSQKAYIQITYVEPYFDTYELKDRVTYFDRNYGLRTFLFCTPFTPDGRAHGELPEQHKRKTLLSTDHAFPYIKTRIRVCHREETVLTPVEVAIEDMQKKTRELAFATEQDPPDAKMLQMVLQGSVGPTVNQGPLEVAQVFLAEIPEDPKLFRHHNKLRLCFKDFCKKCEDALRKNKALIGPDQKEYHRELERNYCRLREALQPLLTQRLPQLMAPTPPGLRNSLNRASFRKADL
Chain of UniProt Q6XZF7 (Q6XZF7 whole entry): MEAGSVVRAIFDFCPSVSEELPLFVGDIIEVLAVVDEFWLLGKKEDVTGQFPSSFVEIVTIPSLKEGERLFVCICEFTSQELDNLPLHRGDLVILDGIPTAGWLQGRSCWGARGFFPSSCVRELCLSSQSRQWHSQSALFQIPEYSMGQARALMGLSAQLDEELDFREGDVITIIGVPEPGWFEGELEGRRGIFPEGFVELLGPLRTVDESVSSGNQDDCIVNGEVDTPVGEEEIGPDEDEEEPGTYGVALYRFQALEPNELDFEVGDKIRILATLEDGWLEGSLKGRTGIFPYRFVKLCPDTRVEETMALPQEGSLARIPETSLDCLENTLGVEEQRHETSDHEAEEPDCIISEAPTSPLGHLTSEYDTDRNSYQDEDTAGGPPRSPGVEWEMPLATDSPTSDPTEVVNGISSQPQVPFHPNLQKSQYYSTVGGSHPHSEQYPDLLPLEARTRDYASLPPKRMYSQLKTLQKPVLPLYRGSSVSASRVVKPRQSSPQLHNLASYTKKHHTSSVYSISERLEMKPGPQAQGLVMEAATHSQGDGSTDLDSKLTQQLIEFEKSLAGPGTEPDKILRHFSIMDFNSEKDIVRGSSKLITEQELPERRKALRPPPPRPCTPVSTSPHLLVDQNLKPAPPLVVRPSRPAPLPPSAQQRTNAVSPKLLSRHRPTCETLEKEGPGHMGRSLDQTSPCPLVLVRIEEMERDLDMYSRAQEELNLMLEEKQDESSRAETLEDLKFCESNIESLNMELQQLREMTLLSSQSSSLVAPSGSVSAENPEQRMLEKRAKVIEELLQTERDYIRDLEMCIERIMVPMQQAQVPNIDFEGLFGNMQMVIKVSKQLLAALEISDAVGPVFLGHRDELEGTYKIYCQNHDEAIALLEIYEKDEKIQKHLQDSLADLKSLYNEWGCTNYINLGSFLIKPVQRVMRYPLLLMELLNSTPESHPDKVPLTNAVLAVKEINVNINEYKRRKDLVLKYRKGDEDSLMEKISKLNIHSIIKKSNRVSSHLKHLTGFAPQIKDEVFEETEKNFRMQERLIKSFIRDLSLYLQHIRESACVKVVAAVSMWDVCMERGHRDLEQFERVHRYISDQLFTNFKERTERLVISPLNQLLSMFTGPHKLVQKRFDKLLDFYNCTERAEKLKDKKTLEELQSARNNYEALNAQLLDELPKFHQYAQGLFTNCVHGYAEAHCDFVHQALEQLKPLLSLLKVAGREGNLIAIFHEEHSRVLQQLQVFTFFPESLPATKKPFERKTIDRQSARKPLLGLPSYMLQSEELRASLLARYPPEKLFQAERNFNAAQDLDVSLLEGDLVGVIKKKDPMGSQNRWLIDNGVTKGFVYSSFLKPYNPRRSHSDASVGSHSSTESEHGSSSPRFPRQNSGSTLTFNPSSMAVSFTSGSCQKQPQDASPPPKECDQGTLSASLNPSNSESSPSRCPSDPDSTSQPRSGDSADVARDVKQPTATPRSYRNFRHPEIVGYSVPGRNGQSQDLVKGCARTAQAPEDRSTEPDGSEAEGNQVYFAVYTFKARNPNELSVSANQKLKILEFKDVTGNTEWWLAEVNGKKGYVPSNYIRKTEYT
Chain of UniProt Q12882 (Q12882 whole entry): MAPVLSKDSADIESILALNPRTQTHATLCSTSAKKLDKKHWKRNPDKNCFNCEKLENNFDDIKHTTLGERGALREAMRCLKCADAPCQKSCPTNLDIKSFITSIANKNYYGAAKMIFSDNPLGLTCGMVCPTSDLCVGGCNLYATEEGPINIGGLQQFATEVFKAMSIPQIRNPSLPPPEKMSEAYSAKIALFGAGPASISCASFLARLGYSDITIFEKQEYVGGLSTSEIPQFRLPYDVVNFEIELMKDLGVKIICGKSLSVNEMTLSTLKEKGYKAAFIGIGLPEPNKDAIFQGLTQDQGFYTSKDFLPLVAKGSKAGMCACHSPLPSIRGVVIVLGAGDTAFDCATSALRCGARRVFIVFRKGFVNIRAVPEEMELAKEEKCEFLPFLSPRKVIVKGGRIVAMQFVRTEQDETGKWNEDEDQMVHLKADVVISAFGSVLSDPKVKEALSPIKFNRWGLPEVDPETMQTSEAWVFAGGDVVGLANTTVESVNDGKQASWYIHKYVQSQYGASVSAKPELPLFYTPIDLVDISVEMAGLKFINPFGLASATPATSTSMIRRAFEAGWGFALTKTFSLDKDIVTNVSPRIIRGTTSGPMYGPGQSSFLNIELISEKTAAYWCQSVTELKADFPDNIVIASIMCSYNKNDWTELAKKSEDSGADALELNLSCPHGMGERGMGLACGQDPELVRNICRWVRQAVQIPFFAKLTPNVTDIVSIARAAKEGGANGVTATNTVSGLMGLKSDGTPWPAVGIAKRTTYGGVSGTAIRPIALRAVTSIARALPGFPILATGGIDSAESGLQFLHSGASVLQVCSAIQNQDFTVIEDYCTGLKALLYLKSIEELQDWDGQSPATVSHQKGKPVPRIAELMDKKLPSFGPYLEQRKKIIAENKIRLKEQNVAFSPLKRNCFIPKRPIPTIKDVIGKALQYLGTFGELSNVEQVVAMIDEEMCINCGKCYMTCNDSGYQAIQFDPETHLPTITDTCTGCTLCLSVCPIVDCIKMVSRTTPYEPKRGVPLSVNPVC
Chain of UniProt Q9NVM6 (Q9NVM6 whole entry): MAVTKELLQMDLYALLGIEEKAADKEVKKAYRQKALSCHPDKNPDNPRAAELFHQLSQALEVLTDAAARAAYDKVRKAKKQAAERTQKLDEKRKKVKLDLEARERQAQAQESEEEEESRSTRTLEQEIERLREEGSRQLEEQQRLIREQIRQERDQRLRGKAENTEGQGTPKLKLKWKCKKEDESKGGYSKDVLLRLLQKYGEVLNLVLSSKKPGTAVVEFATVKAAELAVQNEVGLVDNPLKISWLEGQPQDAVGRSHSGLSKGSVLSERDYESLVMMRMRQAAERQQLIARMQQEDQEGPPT

Target | thermal stability z-score [1, 3] | thermal stability z-score ([1]; arsenate co-treatment: none) | thermal stability z-score [2]
DNAJB12 (UniProt Q9NXW2) | -0.267 | -0.124 | 0.182
DNAJB14 (UniProt Q8TBM8) | 0.0418 | 0.157 | -0.17
DNAJC1 (UniProt Q96KC8) | -0.436 | -0.516 | -0.725
DNAJC2 (UniProt Q99543) | -0.0501 | 0.0208 | 1.09
DNAJC3 (UniProt Q13217) | -4.01 | -3.61 | 0.823
DNAJC6 (UniProt O75061) | 0.617 | 0.625 | 0.413
DNAJC7 (UniProt Q99615) | -0.214 | 0.475 | -0.656
DNAJC8 (UniProt O75937) | 0.653 | 0.49 | 1.25
DNAJC9 (UniProt Q8WXX5) | 0.604 | 0.566 | -2.09
DNAJC10 (UniProt Q8IXB1) | -3.47 | -2.86 | -0.253
DNAJC11 (UniProt Q9NVH1) | 0.0767 | -0.132 | 0.285
DNAJC12 (UniProt Q9UKB3) | -0.279 | -0.182 | -0.108
DNAJC13 (UniProt O75165) | -0.118 | -0.226 | 0.201
DNAJC15 (UniProt Q9Y5T4) | 0.824 | 0.507 | -0.793
DNAJC16 (UniProt Q9Y2G8) | -0.913 | -2.01 | 0.00733
DNAJC17 (UniProt Q9NVM6) | 0.0174 | 0.0121 | -0.299
DNAJC19 (UniProt Q96DA6) | 0.522 | 0.211 | 0.253
DNAJC21 (UniProt Q5F1R6) | -0.615 | -0.205 | 0.00418
DNAJC25 (UniProt Q9H1X3) | -1.46 | -0.0502 | 0.282
DNAJC30 (UniProt Q96LL9) | -0.154 | -0.0708 | 0.0918
DNASE2 (UniProt O00115) | 0.424 | 0.747 | 0.114
DNM1L (UniProt O00429) | -0.508 | 0.234 | 0.237
DNM2 (UniProt P50570) | -0.494 | -0.287 | 0.304
DNMBP (UniProt Q6XZF7) | -0.142 | -0.138 | 0.897

Target | thermal stability z-score [1, 3] | thermal stability z-score ([1]; arsenate co-treatment: none) | thermal stability z-score [2]
DNMT1 (UniProt P26358) | -0.115 | 0.0323 | -0.517
DNPEP (UniProt Q9ULA0) | -0.183 | 0.0127 | 0.248
DNPH1 (UniProt O43598) | 0.0889 | -0.11 | -0.0373
DNTTIP2 (UniProt Q5QJE6) | 0.201 | 0.12 | 0.279
DOCK1 (UniProt Q14185) | -0.371 | -1.05 | 0.0692
DOCK5 (UniProt Q9H7D0) | -0.433 | -0.478 | -0.0423
DOCK6 (UniProt Q96HP0) | -0.406 | -0.347 | -0.391
DOCK7 (UniProt Q96N67) | -0.23 | 0.0599 | 0.962
DOCK9 (UniProt Q9BZ29) | -0.191 | -0.0295 | -0.457
DOCK10 (UniProt Q96BY6) | -0.106 | -0.259 | 0.0405
DOCK11 (UniProt Q5JSL3) | -0.016 | 0.0791 | -0.755
DOHH (UniProt Q9BU89) | -0.0847 | 0.18 | 0.721
DOK1 (UniProt Q99704) | 0.221 | -0.608 | -0.45
DOPEY2 (UniProt Q9Y3R5) | 1.01 | 0.402 | -0.9
DPAGT1 (UniProt Q9H3H5) | -0.304 | 0.836 | -0.109
DPCD (UniProt Q9BVM2) | -0.929 | -0.513 | 0.0166
DPF2 (UniProt Q92785) | 2.86 | 2.98 | -5.05
DPH1 (UniProt Q9BZG8) | -0.233 | -0.119 | -1.29
DPH2 (UniProt Q9BQC3) | -0.0475 | -0.355 | -1.17
DPH5 (UniProt Q9H2P9) | 0.634 | 1.89 | -0.179
DPH6 (UniProt Q7L8W6) | -0.187 | -0.152 | -0.722
DPH7 (UniProt Q9BTV6) | -1.62 | 0.272 | 0.093
DPM1 (UniProt O60762) | 0.673 | 0.429 | 0.383
DPP3 (UniProt Q9NY33) | 0.77 | 0.569 | -0.00156

Target | thermal stability z-score [1, 3] | thermal stability z-score ([1]; arsenate co-treatment: none) | thermal stability z-score [2]
DPP7 (UniProt Q9UHL4) | 0.246 | 0.304 | -0.0217
DPP8 (UniProt Q6V1X1) | 0.32 | 0.543 | 0.257
DPP9 (UniProt Q86TI2) | -0.0984 | -0.0569 | 0.0941
DPY19L1 (UniProt Q2PZI1) | -0.0328 | -0.259 | -0.259
DPYD (UniProt Q12882) | 0.0898 | 0.178 | 0.0708
DPYSL2 (UniProt Q16555) | 0.645 | 0.115 | -0.691
DR1 (UniProt Q01658) | 0.466 | 0.257 | -0.043
DRAM2 (UniProt Q6UX65) | 0.00378 | -0.247 | 1.26
DRAP1 (UniProt Q14919) | -0.781 | -0.122 | -0.503
DRG1 (UniProt Q9Y295) | -0.143 | -0.213 | 0.121
DRG2 (UniProt P55039) | -0.439 | -0.192 | -0.395
DROSHA (UniProt Q9NRR4) | -0.124 | -0.127 | 0.141
DSC2 (UniProt Q02487) | 2.38 | 5.06 | 1.77
DSCC1 (UniProt Q9BVC3) | 0.0551 | 0.0324 | -0.199
DSG1 (UniProt Q02413) | 11 | 13.3 | 1.69
DSG2 (UniProt Q14126) | -0.108 | 0.19 | 0.99
DSN1 (UniProt Q9H410) | 0.0417 | -0.0069 | 0.127
DSP (UniProt P15924) | 3.08 | 3.94 | -0.576
DST (UniProt Q03001) | 0.0624 | -0.113 | -0.103
DSTN (UniProt P60981) | 0.471 | 0.0123 | -1.22
DSTYK (UniProt Q6XUX3) | 0.0406 | -0.378 | -0.117
DTD1 (UniProt Q8TEA8) | 0.65 | 0.308 | 0.163
DTL (UniProt Q9NZJ0) | -0.0028 | -0.0193 | -0.408
